# Assay results taken from US12617771B2, “Diphenylpyrazole compound, and preparation method therefor and application thereof” (NORTHWEST A&F UNIVERSITY, priority 2021, dated 2026).
# Structures can show the parent of a compound that is named as a salt.
# Tests used:
# [1] = tested on: high resistant strains I of Plutella xylostella (Lianzhou insect source); assay: Insecticidal synergistic activity with chlorantraniliprole, high resistant strains I (Lianzhou insect source); format: in vivo; conditions: for Resistance ratio to chlorantraniliprole: high resistant strains I (Lianzhou)
# Procedure: (§1) Experiment: 96% chlorantraniliprole (Chl) original drug was prepared into mother liquor with a concentration of 50000 mg/L. During the test, 6 treatment solutions with concentrations of 500, 250, 125, 62.5, 31.25 and 15.63 mg/L were prepared. 200 mg/L of the compound PXG22 of the present invention was added to each treatment solution, 200 mg/L of diethyl maleate (DEM) was used as the control synergist, and water was used as another control. The Plutella xylostella (Linnaeus) larvae was collected from a vegetable field in Yunnan Province. Healthy 3rd instar larvae of the same age were selected for indoor biological activity assay.
# (§2) Clean wild cabbage leaves were cut into discs with a diameter of 6.5 cm (avoiding main veins). The leaves were soaked in the pesticide solution for 10 seconds, then taken out, dried at 25° C., and placed in a petri dish with a diameter of 6.5 cm. 10 larvae of the resistant strains of Plutella xylostella at the early stage of 3rd instar were placed in each petri dish, which was covered with double-layer absorbent roll paper, and covered by the upper cover of the petri dish. It was placed face up in an incubator at a temperature of 25±1° C., a relative humidity of 65%-70%, and a light ratio (L:D) of 16: 8 h. Each treatment was replicated 4 times with 10 larvae per replicate. […] The test process is strictly in accordance with the standard: NY/T 1154.7-2006.
# (§3) Experimental data analysis was carried out using practical statistical analysis and its computer processing platform (DPS) (TANG Qiyi et al., 1997). The toxicity regression equation of each agent was established, LC50 value and 95% confidence limit were calculated.
# Experiment: The method was the same as in Experimental example 4, and the tested Plutella xylostella was the high resistant strains I against chlorantraniliprole (Lianzhou source). The added concentrations of the compound PXG22 of the present invention were 200 mg/L, 100 mg/L and 50 mg/L, and the added concentration of diethyl maleate (DEM) of the control synergist was maintained at 200 mg/L.
# [2] = tested on: high resistant strains II of Plutella xylostella (Lianzhou insect source); assay: Insecticidal synergistic activity with chlorantraniliprole, high resistant strains II (Lianzhou insect source); format: in vivo; conditions: for Resistance ratio to chlorantraniliprole: high resistant strains II (Lianzhou)
# Procedure: as §1, §2, §3
# Experiment: The method was the same as in Experimental example 4, and the tested Plutella xylostella was the high resistant strains II against chlorantraniliprole (Lianzhou source). The added concentrations of the compound PXG22 of the present invention were 200 mg/L, 100 mg/L, 50 mg/L and 25 mg/L, and the added concentration of diethyl maleate (DEM) of the control synergist was maintained at 200 mg/L.
# [3] = tested on: resistant strains of Plutella xylostella; assay: Insecticidal synergistic activity with indoxacarb, leaf dip, resistant strains (Huizhou); format: in vivo; conditions: for Resistance ratio to indoxacarb: 48 hours
# Procedure: as §1, with “Experiment: 95% indoxacarb (Ind)” for “Experiment: 96% chlorantraniliprole (Chl)”, “the compounds PXG1, PXG2 and” for “the compound”, “invention were” for “invention was”, “in Huizhou city, Guangdong” for “in Yunnan”
# as §2, §3
# [4] = tested on: ultra-high resistant strains of Plutella xylostella (Huizhou insect source); assay: Insecticidal synergistic activity with chlorantraniliprole, ultra-high resistant strains (Huizhou insect source); format: in vivo; conditions: for Resistance ratio to chlorantraniliprole: chlorantraniliprole alone or with 200 mg/L synergist, ultra-high resistant strains (Huizhou); for LC50 of chlorantraniliprole solution: in vivo
# Procedure: as §1, §2, §3
# Experiment: The method was the same as in Experimental Example 4. The tested Plutella xylostella was ultra-high resistance strains to chlorantraniliprole (Huizhou insect source). The compound PXG22 of the present invention was added at a concentration of 200 mg/L. The control synergist diethyl maleate (DEM) was added at a concentration of 200 mg/L.
# [5] = tested on: resistant strains of Plutella xylostella; assay: Insecticidal synergistic activity with chlorantraniliprole, leaf dip, resistant strains (Yunnan); format: in vivo; conditions: for Resistance ratio to chlorantraniliprole: chlorantraniliprole alone or with 200 mg/L synergist, 48 hours; for LC50 of chlorantraniliprole solution: in vivo
# Procedure: as §1, §2, §3
# PxGSTδ1 = PxGSTδ1 (Plutella xylostella, UniProt D7URW9); assay: Inhibition of PxGSTδ1 recombinant protein; format: biochemical; conditions: read-out: 100 μM Inhibition rate %
# Sequence of PxGSTδ1 (D7URW9 entry or part of it): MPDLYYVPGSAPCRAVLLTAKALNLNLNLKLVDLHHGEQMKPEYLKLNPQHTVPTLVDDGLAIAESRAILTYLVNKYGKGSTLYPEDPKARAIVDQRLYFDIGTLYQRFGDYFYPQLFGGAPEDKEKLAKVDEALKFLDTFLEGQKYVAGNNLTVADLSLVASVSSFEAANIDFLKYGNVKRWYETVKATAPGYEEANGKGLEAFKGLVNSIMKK
# Outline: (§4)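 Recombinant Plutella xylostella GSTs (1 μg) preincubated with compound in 100 mM PBS pH 7.2, 10 min, 30 °C; 1 mM CDNB and 1 mM GSH in PBS then added. A340 read every 1 min for 5 min; inhibition from A340 change vs control, IC50 by curve fit, triplicate.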
# PxGSTσ2 = PxGSTσ2 (Plutella xylostella, UniProt Q6F443); assay: Inhibition of PxGSTσ2 recombinant protein; format: biochemical; conditions: read-out: 100 μM Inhibition rate %
# Sequence of PxGSTσ2 (Q6F443 entry or part of it): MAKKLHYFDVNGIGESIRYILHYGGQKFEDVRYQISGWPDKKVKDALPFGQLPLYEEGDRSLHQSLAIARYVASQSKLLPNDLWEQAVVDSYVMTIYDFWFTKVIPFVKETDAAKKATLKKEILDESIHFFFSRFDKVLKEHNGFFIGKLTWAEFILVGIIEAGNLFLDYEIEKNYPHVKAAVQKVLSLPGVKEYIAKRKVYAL
# Outline: as §4
# PxGSTε3 = PxGSTε3 (Plutella xylostella, UniProt O77409); assay: Inhibition of PxGSTε3 recombinant protein; format: biochemical; conditions: read-out: 100 μM Inhibition rate %
# Sequence of PxGSTε3 (O77409 entry or part of it): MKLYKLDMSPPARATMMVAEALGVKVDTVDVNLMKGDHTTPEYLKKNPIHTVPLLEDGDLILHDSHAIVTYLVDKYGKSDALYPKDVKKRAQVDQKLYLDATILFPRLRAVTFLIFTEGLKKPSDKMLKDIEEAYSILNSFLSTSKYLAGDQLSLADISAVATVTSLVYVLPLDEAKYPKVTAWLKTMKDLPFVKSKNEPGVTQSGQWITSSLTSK
# Outline: as §4
# PxGSTσ1 = PxGSTσ1 (Plutella xylostella, UniProt Q6F436); assay: Inhibition of PxGSTσ1 recombinant protein; format: biochemical; conditions: read-out: 100 μM Inhibition rate %
# Sequence of PxGSTσ1 (Q6F436 entry or part of it): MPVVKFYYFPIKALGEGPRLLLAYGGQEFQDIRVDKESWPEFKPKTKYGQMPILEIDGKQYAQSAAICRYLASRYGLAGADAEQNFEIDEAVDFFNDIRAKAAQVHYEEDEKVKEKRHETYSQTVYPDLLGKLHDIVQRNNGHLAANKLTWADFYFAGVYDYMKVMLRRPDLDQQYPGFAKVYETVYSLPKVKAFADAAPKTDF
# Outline: as §4
# Carposina sasakii GSTs = assay: Inhibition of total GSTs enzyme of Carposina sasakii (CDNB method); format: biochemical
# Outline: (§5)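 Total GSTs were taken from the 14,000 g supernatant of larval/nymph homogenate in 100 mM sodium phosphate with 1 mM EDTA, pH 7.2. Enzyme (5 μg) was preincubated with compound in PBS pH 7.2 containing 1 mM GSH for 10 min at 30 °C, then started with buffer containing 1 mM CDNB. IC50 was derived from inhibition of the 5-min ΔA340, done in triplicate.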
# Nilaparvata lugens GSTs = assay: Inhibition of total GSTs enzyme of Nilaparvata lugens (CDNB method); format: biochemical
# Outline: as §5
# Chilo suppressalis GSTs = assay: Inhibition of total GSTs enzyme of Chilo suppressalis (CDNB method); format: biochemical
# Outline: as §5
# Spodoptera litura GSTs = assay: Inhibition of total GSTs enzyme of Spodoptera litura (CDNB method); format: biochemical
# Outline: as §5
# Mythimna separata GSTs = assay: Inhibition of total GSTs enzyme of Mythimna separata (CDNB method); format: biochemical
# Outline: as §5
# [6] = tested on: Spodoptera frugiperda GSTs; assay: Inhibition of total GSTs enzyme of Spodoptera frugiperda (CDNB method); format: biochemical
# Outline: as §5
# Pyrausta nubilalis GSTs = assay: Inhibition of total GSTs enzyme of Pyrausta nubilalis (CDNB method); format: biochemical
# Outline: as §5
# [7] = molecular target: Helicoverpa armigera GSTs; assay: Inhibition of total GSTs enzyme of Helicoverpa armigera (CDNB method); format: biochemical
# Outline: as §5
# Plutella xylostella GSTs = assay: Inhibition of total GSTs enzyme of Plutella xylostella (CDNB method); format: biochemical
# Outline: as §5
# [8] = chlorantraniliprole alone or with 200 mg/L synergist
# [9] = indoxacarb alone or with 200 mg/L synergist
# [10] = Plutella xylostella, read-out: LC50 of chlorantraniliprole solution
smiles,measurement,setting,value
"CCOC(=O)/C=C\C(=O)OCC [DEM, diethyl maleate, reference compound]",Resistance ratio to chlorantraniliprole,[1]; [8],232
same,LC50 of chlorantraniliprole solution,[1]; in vivo,53.36 µg/mL
same,Resistance ratio to chlorantraniliprole,[2]; [8],469.52
same,LC50 of chlorantraniliprole solution,[2]; in vivo,107.99 µg/mL
same,LC50 of indoxacarb,[3]; in vivo,54.11 µg/mL
same,Resistance ratio to indoxacarb,[3]; [9],104.06
same,Resistance ratio to chlorantraniliprole,[4],1925.26
same,LC50 of chlorantraniliprole solution,[4],442.81 µg/mL
same,Resistance ratio to chlorantraniliprole,[5],217.48
same,LC50 of chlorantraniliprole solution,[5],50.02 µg/mL
"COC(=O)N(C(=O)N1CO[C@@]2(C(=O)OC)Cc3cc(Cl)ccc3C2=N1)c1ccc(OC(F)(F)F)cc1 [Ind, Indoxacarb, reference compound]",LC50 of indoxacarb,"[3]; indoxacarb alone or with 200 mg/L synergist, 3rd instar larvae, mortality after 48 hours",74.72 µg/mL
same,Resistance ratio to indoxacarb,[3]; [9],143.70
"Cc1csc(CC(=O)NNC(=O)c2cc(-c3ccccc3)nn2-c2ccccc2)n1 [PXG2, N′-[2-(4-methyl-1,3-thiazol-2-yl)acetyl]-1,3-diphenyl-1H-pyrazol-5-yl-carbohydrazide]",inhibition at 100 µM,PxGSTδ1,87.8%
same,inhibition at 100 µM,PxGSTσ2,14.6%
same,inhibition at 100 µM,PxGSTε3,-4%
same,LC50 of indoxacarb,[3]; in vivo,39.93 µg/mL
same,Resistance ratio to indoxacarb,[3]; [9],76.78
same,inhibition at 100 µM,PxGSTσ1,25.1%
"O=C(NNC(=O)c1cc(-c2ccccc2)nn1-c1ccccc1)c1cc[nH]c(=O)c1 [PXG1, N′-(1,3-diphenyl-1H-pyrazol-5-yl-carbonyl)-2-oxo-1,2-dihydropyridinyl-4-carbohydrazide]",inhibition at 100 µM,PxGSTδ1,68.9%
same,IC50,Carposina sasakii GSTs,52.6 µM
same,100 μM Inhibition rate %,Carposina sasakii GSTs,71.91%
same,100 μM Inhibition rate %,Nilaparvata lugens GSTs,100.60%
same,inhibition at 100 µM,PxGSTσ2,58.1%
same,inhibition at 100 µM,PxGSTε3,17.6%
same,IC50,Chilo suppressalis GSTs,8.24 µM
same,100 μM Inhibition rate %,Chilo suppressalis GSTs,92.32%
same,LC50 of indoxacarb,[3]; in vivo,59.13 µg/mL
same,Resistance ratio to indoxacarb,[3]; [9],113.71
same,inhibition at 100 µM,PxGSTσ1,25.5%
same,IC50,Spodoptera litura GSTs,17.7 µM
same,100 μM Inhibition rate %,Spodoptera litura GSTs,80.06%
same,100 μM Inhibition rate %,Mythimna separata GSTs,95.19%
same,100 μM Inhibition rate %,[6],58.40%
same,IC50,Pyrausta nubilalis GSTs,12.1 µM
same,100 μM Inhibition rate %,Pyrausta nubilalis GSTs,87.80%
same,IC50,[7],52.8 µM
same,100 μM Inhibition rate %,[7],77.22%
same,IC50,Plutella xylostella GSTs,27.6 µM
same,100 μM Inhibition rate %,Plutella xylostella GSTs,70.90%
"O=C(NNC(=O)c1cc(-c2ccccc2)nn1-c1ccccc1)c1cc(=O)[nH]c2ccccc12 [PXG22, N′-(1,3-diphenyl-1H-pyrazol-5-yl-carbonyl)-2-oxo-1,2-dihydroquinoline-4-yl-carbohydrazide]",Resistance ratio to chlorantraniliprole,[1]; 50 mg/L PXG22 added,216.91
same,Resistance ratio to chlorantraniliprole,[1]; 100 mg/L PXG22 added,92
same,Resistance ratio to chlorantraniliprole,[1]; [8],175.82
same,inhibition at 100 µM,PxGSTδ1,78.8%
same,inhibition at 100 µM,PxGSTσ2,76.7%
same,inhibition at 100 µM,PxGSTε3,65.8%
same,Resistance ratio to chlorantraniliprole,[2]; 25 mg/L PXG22 added,341.48
same,Resistance ratio to chlorantraniliprole,[2]; 50 mg/L PXG22 added,312.52
same,Resistance ratio to chlorantraniliprole,[2]; 100 mg/L PXG22 added,195.04
same,Resistance ratio to chlorantraniliprole,[2]; [8],243.13
same,LC50 of indoxacarb,[3]; in vivo,51.21 µg/mL
same,Resistance ratio to indoxacarb,[3]; [9],98.48
same,inhibition at 100 µM,PxGSTσ1,45.7%
same,Resistance ratio to chlorantraniliprole,[4],645.43
same,LC50 of chlorantraniliprole solution,[4],148.45 µg/mL
same,Resistance ratio to chlorantraniliprole,[5],61.04
same,LC50 of chlorantraniliprole solution,[5],14.04 µg/mL
"CNC(=O)c1cc(Cl)cc(C)c1NC(=O)c1cc(Br)nn1-c1ncccc1Cl [Chl, Chlorantraniliprole, reference compound]",LC50,[1]; [10],134 µg/mL
same,Resistance ratio to chlorantraniliprole,[1]; [8],583.74
same,LC50,[2]; [10],145 µg/mL
same,Resistance ratio to chlorantraniliprole,[2]; [8],631.26
same,LC50,[4]; [10],503 µg/mL
same,Resistance ratio to chlorantraniliprole,[4],2188.61
same,LC50,"[5]; Plutella xylostella, foliar, 48 h, read-out: LC50 of chlorantraniliprole solution",110 µg/mL
same,Resistance ratio to chlorantraniliprole,[5],479
"N#Cc1ccc(OCC(=O)NNC(=O)c2cc(-c3ccccc3)nn2-c2ccccc2)cc1 [PXG19, 2-(4-cyanophenoxy)-N′-(1,3-diphenyl-1H-pyrazol-5-yl-carbonyl)acetohydrazide]",inhibition at 100 µM,PxGSTδ1,58.7%
same,IC50,Carposina sasakii GSTs,> 100 µM
same,100 μM Inhibition rate %,Carposina sasakii GSTs,19.42%
same,IC50,Nilaparvata lugens GSTs,> 100 µM
same,100 μM Inhibition rate %,Nilaparvata lugens GSTs,10.00%
same,inhibition at 100 µM,PxGSTσ2,32.5%
same,inhibition at 100 µM,PxGSTε3,5.57%
same,IC50,Chilo suppressalis GSTs,> 100 µM
same,100 μM Inhibition rate %,Chilo suppressalis GSTs,22.03%
same,inhibition at 100 µM,PxGSTσ1,45.9%
same,IC50,Spodoptera litura GSTs,> 100 µM
same,100 μM Inhibition rate %,Spodoptera litura GSTs,31.70%
same,IC50,Mythimna separata GSTs,> 100 µM
same,100 μM Inhibition rate %,Mythimna separata GSTs,47.16%
same,IC50,[6],> 100 µM
same,100 μM Inhibition rate %,[6],19.64%
same,IC50,Pyrausta nubilalis GSTs,> 100 µM
same,100 μM Inhibition rate %,Pyrausta nubilalis GSTs,15.64%
same,IC50,[7],> 100 µM
same,100 μM Inhibition rate %,[7],6.30%
same,IC50,Plutella xylostella GSTs,> 100 µM
same,100 μM Inhibition rate %,Plutella xylostella GSTs,23.03%
